# Laboratory results reported in patent publication US9751858B2, “3-heteroaroylamino-propionic acid derivatives and their use as pharmaceuticals” (SANOFI, priority 2011, dated 2017).
# Target: T1, Recombinant human cathepsin A (Homo sapiens, UniProt P10619)
# T1 construct: Recombinant human cathepsin A (residues 29-480, with a C-terminal 10-His tag); 10-His (C); purchased R&D Systems 1049-SE
# T1 sequence (P10619 29-326 limits assumed): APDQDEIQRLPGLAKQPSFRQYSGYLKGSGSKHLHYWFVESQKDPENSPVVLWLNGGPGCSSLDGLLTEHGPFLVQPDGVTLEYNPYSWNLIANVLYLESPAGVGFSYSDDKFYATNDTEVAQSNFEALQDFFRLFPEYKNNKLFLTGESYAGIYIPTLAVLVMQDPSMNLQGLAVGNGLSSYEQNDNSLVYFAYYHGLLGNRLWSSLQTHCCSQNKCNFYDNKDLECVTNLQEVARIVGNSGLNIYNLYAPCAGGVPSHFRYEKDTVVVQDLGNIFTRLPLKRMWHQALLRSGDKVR
# T1 sequence (P10619 327-480 limits assumed): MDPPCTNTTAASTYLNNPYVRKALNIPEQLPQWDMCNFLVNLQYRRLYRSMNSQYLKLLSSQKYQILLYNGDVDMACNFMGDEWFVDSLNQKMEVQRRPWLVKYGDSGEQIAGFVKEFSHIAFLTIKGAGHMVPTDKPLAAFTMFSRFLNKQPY
# Assay: Cathepsin A inhibitory activity
# Type: biochemical
# Conditions: activated recombinant human cathepsin A 833 ng/ml, Bodipy FL-labeled bradykinin 2 μM, pH 5.5, 15 min room temperature
# Procedure, shortened: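 Cathepsin A activated by cathepsin L (15 min, 37 °C, pH 6.0), then preincubated 15 min at room temperature with compound in 25 mM MES pH 5.5, 5 mM DTT. Bodipy FL-bradykinin cleavage ran 15 min at room temperature; substrate and product separated by microfluidic capillary electrophoresis, turnover from peak areas.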
row,IC50 [µM],SMILES
1,> 10,"Cc1ccccc1[C@H](CC(=O)O)NC(=O)c1nn(C)cc1NS(=O)(=O)CC(C)(C)C [Example 95, (S)-3-{[4-(2,2-Dimethyl-propane-1-sulfonylamino)-1-methyl-1H-pyrazole-3-carbonyl]-amino}-3-o-tolyl-propionic acid]"
2,10.3,"O=C(O)C[C@H](NC(=O)c1nc(-c2ccccc2)oc1C(F)(F)F)c1cccc(Cl)c1 [Example 96, (S)-3-(3-Chloro-phenyl)-3-[(2-phenyl-5-trifluoromethyl-oxazole-4-carbonyl)-amino]-propionic acid]"
3,7.37,"O=C(O)C[C@H](NC(=O)c1nc(-c2ccccc2)oc1C(F)(F)F)c1ccccc1Cl [Example 97, (S)-3-(2-Chloro-phenyl)-3-[(2-phenyl-5-trifluoromethyl-oxazole-4-carbonyl)-amino]-propionic acid]"
4,0.075,"Cc1ccccc1[C@H](CC(=O)O)NC(=O)c1cc(-c2ccccc2)n(Cc2ccccc2)n1 [Example 98, (S)-3-[(1-Benzyl-5-phenyl-1H-pyrazole-3-carbonyl)-amino]-3-o-tolyl-propionic acid]"
5,> 10,"O=C(N[C@@H](Cc1ccc(Cl)cc1)C(=O)O)c1noc(-c2cnccc2C(F)(F)F)n1 [Example 99, (S)-3-(4-Chloro-phenyl)-2-{[5-(4-trifluoromethyl-pyridin-3-yl)-[1,2,4]oxadiazole-3-carbonyl]-amino}-propionic acid]"
6,4.75,"CCCC1CCCCN1C(=O)c1cc(C(=O)N[C@@H](CC(=O)O)c2ccccc2)nn1CC (stereo partly drawn) [Example 100, (S)-3-{[1-Ethyl-5-(2-propyl-piperidine-1-carbonyl)-1H-pyrazole-3-carbonyl]-amino}-3-phenyl-propionic acid]"
7,> 10,"O=C(O)C[C@H](NC(=O)c1noc(-c2cccc(F)c2F)n1)c1ccccc1C(F)(F)F [Example 101, (S)-3-{[5-(2,3-Difluoro-phenyl)-[1,2,4]oxadiazole-3-carbonyl]-amino}-3-(2-trifluoromethyl-phenyl)-propionic acid]"
8,0.44,"COc1cccc([C@H](CC(=O)O)NC(=O)c2nc(-c3ccccc3)n(-c3ccccc3)n2)c1 [Example 102, (S)-3-[(1,5-Diphenyl-1H-[1,2,4]triazole-3-carbonyl)-amino]-3-(3-methoxy-phenyl)-propionic acid]"
9,0.598,"CC(C)c1oc(-c2ccccc2)nc1C(=O)N[C@@H](CC(=O)O)c1cccc(Cl)c1Cl [Example 103, (S)-3-(2,3-Dichloro-phenyl)-3-[(5-isopropyl-2-phenyl-oxazole-4-carbonyl)-amino]-propionic acid]"
10,0.128,"O=C(O)C[C@H](NC(=O)c1nc(-c2ccccc2)n(-c2ccccc2)n1)c1cccc(Cl)c1 [Example 104, (S)-3-(3-Chloro-phenyl)-3-[(1,5-diphenyl-1H-[1,2,4]triazole-3-carbonyl)-amino]-propionic acid]"
11,9.21,"CC(C)c1oc(-c2ccccc2)nc1C(=O)N[C@@H](CC(=O)O)c1ccc(Cl)cc1Cl [Example 105, (S)-3-(2,4-Dichloro-phenyl)-3-[(5-isopropyl-2-phenyl-oxazole-4-carbonyl)-amino]-propionic acid]"
12,0.119,"O=C(O)C[C@H](NC(=O)c1nc(-c2ccccc2)n(-c2ccccc2)n1)c1ccccc1Cl [Example 106, (S)-3-(2-Chloro-phenyl)-3-[(1,5-diphenyl-1H-[1,2,4]triazole-3-carbonyl)-amino]-propionic acid]"
13,0.545,"CCc1nc(C(=O)N[C@@H](CC(=O)O)c2ccc(C)cc2)nn1-c1c(Cl)cccc1Cl [Example 107, (S)-3-{[1-(2,6-Dichloro-phenyl)-5-ethyl-1H-[1,2,4]triazole-3-carbonyl]-amino}-3-p-tolyl-propionic acid]"
14,0.35,"CCc1nc(C(=O)N[C@@H](CC(=O)O)c2ccccc2C)nn1-c1c(Cl)cccc1Cl [Example 108, (S)-3-{[1-(2,6-Dichloro-phenyl)-5-ethyl-1H-[1,2,4]triazole-3-carbonyl]-amino}-3-o-tolyl-propionic acid]"
15,> 10,"Cn1cc(NS(=O)(=O)CC2CCCCC2)c(C(=O)N[C@@H](CC(=O)O)c2ccccc2)n1 [Example 109, (S)-3-[(4-Cyclohexylmethanesulfonylamino-1-methyl-1H-pyrazole-3-carbonyl)-amino]-3-phenyl-propionic acid]"
16,> 10,"O=C(O)C[C@H](NC(=O)CCc1nc(-c2ccccc2F)no1)c1ccccc1C(F)(F)F [Example 110, (S)-3-{3-[3-(2-Fluoro-phenyl)-[1,2,4]oxadiazol-5-yl]-propionylamino}-3-(2-trifluoromethyl-phenyl)-propionic acid]"
17,> 10,"O=C(O)C[C@H](NC(=O)CCc1nc(-c2ccccc2F)no1)c1ccc(C(F)(F)F)cc1 [Example 111, (S)-3-{3-[3-(2-Fluoro-phenyl)-[1,2,4]oxadiazol-5-yl]-propionylamino}-3-(4-trifluoromethyl-phenyl)-propionic acid]"
18,> 10,"O=C(O)C[C@H](NC(=O)CCc1nc(-c2ccccc2F)no1)c1cccc(Cl)c1Cl [Example 112, (S)-3-(2,3-Dichloro-phenyl)-3-{3-[3-(2-fluoro-phenyl)-[1,2,4]oxadiazol-5-yl]-propionylamino}-propionic acid]"
19,> 10,"O=C(O)C[C@H](NC(=O)CCc1nc(-c2ccccc2F)no1)c1cccc(C(F)(F)F)c1 [Example 113, (S)-3-{3-[3-(2-Fluoro-phenyl)-[1,2,4]oxadiazol-5-yl]-propionylamino}-3-(3-trifluoromethyl-phenyl)-propionic acid]"
20,0.81,"CCCC1CCCCN1C(=O)c1cc(C(=O)N[C@@H](CC(=O)O)c2ccccc2C)nn1CC (stereo partly drawn) [Example 114, (S)-3-{[1-Ethyl-5-(2-propyl-piperidine-1-carbonyl)-1H-pyrazole-3-carbonyl]-amino}-3-o-tolyl-propionic acid]"
21,2.5,"CCCC1CCCCN1C(=O)c1cc(C(=O)N[C@@H](CC(=O)O)c2ccc(C)cc2)nn1CC (stereo partly drawn) [Example 115, (S)-3-{[1-Ethyl-5-(2-propyl-piperidine-1-carbonyl)-1H-pyrazole-3-carbonyl]-amino}-3-p-tolyl-propionic acid]"
22,4.56,"CCCC1CCCCN1C(=O)c1cc(C(=O)N[C@@H](CC(=O)O)c2cccc(C)c2)nn1CC (stereo partly drawn) [Example 116, (S)-3-{[1-Ethyl-5-(2-propyl-piperidine-1-carbonyl)-1H-pyrazole-3-carbonyl]-amino}-3-m-tolyl-propionic acid]"
23,> 10,"Cc1ccccc1[C@H](CC(=O)O)NC(=O)c1nn(C)cc1NS(=O)(=O)Cc1ccccc1 [Example 117, (S)-3-[(1-Methyl-4-phenylmethanesulfonylamino-1H-pyrazole-3-carbonyl)-amino]-3-o-tolyl-propionic acid]"
24,1.54,"Cc1ccccc1[C@H](CC(=O)O)NC(=O)c1cc(-c2ccccc2)n(Cc2ccc(F)cc2)n1 [Example 118, (S)-3-{[1-(4-Fluoro-benzyl)-5-phenyl-1H-pyrazole-3-carbonyl]-amino}-3-o-tolyl-propionic acid]"
25,> 10,"Cc1ccccc1[C@H](CC(=O)O)NC(=O)c1nn(C)cc1NS(=O)(=O)CC1CCCCC1 [Example 119, (S)-3-[(4-Cyclohexylmethanesulfonylamino-1-methyl-1H-pyrazole-3-carbonyl)-amino]-3-o-tolyl-propionic acid]"
